Literature values in patent US9662296B2, “Pharmaceutical composition comprising bicarbonate salt, and use thereof as a medicament in the treatment and/or prevention of urinary lithiases and related diseases” (ADVICENNE, priority 2010, dated 2017).

Settings: high doses (30 to 40 grams per day)

Row | Compound | adverse manifestations
1 | O=C([O-])O.[K+] [potassium bicarbonate] | manifestations of metabolic alkalosis or digestive disorders, mainly diarrhoea
2 | O=C([O-])O.[Na+] [sodium bicarbonate] | manifestations of metabolic alkalosis or digestive disorders, mainly diarrhoea
